Measured values published in a melting point compilation (Tetko et al.; mined from patent text by program, amines drawn as free bases though some values may be those of a salt).

| melting point | SMILES |
| --- | --- |
| 295 to 298 °C | C[C@@H]1CCCN1CCc1ccc2cc(-c3ccc(=O)[nH]n3)ccc2c1 |
| 158 to 159 °C | CCC(=O)NC[C@@H]1C[C@H]1c1c(F)ccc2nn(C)cc12 (relative stereo) |
| 101 to 102 °C | CCNC(=O)c1cc(C(F)(F)F)ccc1[Si](C)(C)C |
| 143 to 145 °C | CN1CCC(NC(=O)c2cc(Cl)ccc2F)CC1 |
| 161 to 163 °C | O=C1Nc2ccccc2N(C(=O)N2CCCC(CCCN3CCOCC3)C2)c2ncccc21 (centres undefined) |
| 112 to 115 °C | COc1cccc(C(=CC2CCN(CCCCCCCCc3cccnc3)CC2)c2cccc(OC)c2)c1 |
| 205 to 209 °C | CCOC(=O)c1ccc2cc(-c3ccc(OC)cc3)ccn2c1=O |
| 64 to 65 °C | CCC(OC(C)=O)c1ccc(C(OC(C)=O)C(C)(C)C)cc1 (centres undefined) |
| 130 to 132 °C | O=C(O)CC1(c2ccccc2)CCCCC1=O (centres undefined) |
| 55 °C | CCCCC(C(=O)OCC)=C(Nc1cccc(SC)c1)C(=O)OCC |
| 278 to 282 °C | CC(=O)Oc1ccc(Cc2n[nH]c3c2c(=O)n(-c2ccccc2)c2ncccc32)cc1 |
| 213 to 220 °C | CCC(=O)Oc1ccc(N)cc1C(=O)O |
| 196 to 197 °C | N#Cc1ccc(N(Cc2ccc(O)c(Cl)c2)n2cnnc2)cc1-c1cc2ccccc2o1 |
| 85 to 86 °C | CCN(CC)C(=O)n1ccc(S(=O)(=O)c2ccc(Cl)cc2Cl)n1 |
| 145 to 146 °C | CC1CCC(C(C)C)C(C(=O)NC(C)(C)C)C1 (centres undefined) |
| 197 to 198 °C | COc1ccccc1S(=O)(=O)N(C)c1cccc2cc(C3=NCC(CC(=O)O)S3)[nH]c12 (centres undefined) |
| 147 to 149 °C | NS(=O)(=O)OCCOc1cccc(OCCOS(N)(=O)=O)c1 |
| 124 to 126 °C | COc1ccc(-n2nc(-c3ccc(F)cc3)c(-c3ccncc3)c2-c2c[nH]cn2)cc1 |
| 115 to 118 °C | O=[N+]([O-])c1cccnc1N=C=S |
| 148 to 149 °C | O=C(O)c1ccc(CO/N=C/c2cc3ccccc3n2Cc2ccccc2)cc1Br |
| 180 to 183 °C | Oc1cccc2cc(-c3ccc(OCCN4CCCC4)cc3)sc12 |
| 125 to 127 °C | O=C(NCN1CCN(c2ccccn2)CC1)c1ccccc1 |
| 150 to 151 °C | CN1CC(C(=O)c2cccn2Cc2ccc(F)cc2)=C(O)C1=O |
| 154 to 155 °C | CCCCc1nc(Cl)c(C(=O)OC)n1Cc1ccc(-c2ccccc2C(=O)O)cc1 |
| 192 to 195 °C | O=C(NCCO)C1=CNc2cccnc2S1 |

| melting point | SMILES |
| --- | --- |
| 148 °C | Cc1cc(-n2ccnc2)c2cccc(OCc3c(Cl)ccc(S(=O)(=O)N4CCOCC4)c3Cl)c2n1 |
| 176 to 178 °C | C=c1c(=O)[nH]c2n1Cc1cc(OCCCC(=O)N(C)C3CCCCC3)ccc1N=2 |
| 92 to 94 °C | COc1ccc2cc([C@H](C)C(=O)OCCNC(=O)c3cccc(CO[N+](=O)[O-])c3)ccc2c1 |
| 136 to 139 °C | O=C1C=CC(=O)N1CCCCCCN1C(=O)C=CC1=O |
| 196 °C | CCCCc1nc2ccccc2n1Cc1ccc(C(=O)Nc2cccc3[nH]ccc23)cc1 |
| 187 to 190 °C | COc1ccc(-c2ccc3nnn(Cc4ccc5ncccc5c4)c3n2)cc1F |
| 105 °C | CCOC(=O)c1cccc(OCCCC2CCN(c3ccc(Cl)nn3)CC2)c1 |
| 212 °C | Clc1ccc(-c2nc(NCc3ccccc3)c3ccccc3n2)cn1 |
| 92 to 93 °C | CC(C)(C(=O)C=Cc1ccc(Cl)cc1Cl)C1OCCO1 |
| 200 to 201 °C | CCS(=O)(=O)c1ccc(C(CC2CCCC2)C(=O)NC(=O)NC)cc1 (centres undefined) |
| 133 to 135 °C | COc1ccc(C[C@H](NC(=O)OC(C)(C)C)C(=O)c2ccc(O)cc2)cc1 |
| 97 to 99 °C | CCOP(=O)(CC(=O)N1CCc2ccccc21)OCC |
| 215 to 218 °C | Nc1ccccc1NC(=O)c1ccc(COc2ccc3ncnc(Nc4cccc(Br)c4)c3c2)cc1 |
| 235 to 236 °C | Cc1ccc2nc(C3(c4ccc(S(N)(=O)=O)cc4)C=C(C(F)F)NN3)sc2c1 (centres undefined) |
| 78 to 79 °C | N#Cc1ccc2sc(CO)cc2c1 |
| 242 °C | CCCC1=Cc2c(c(C)c(C)c3oc(C(=O)O)cc23)C1=O |
| 86 to 90 °C | CN(C)CCCn1cc(C2=C(c3c[nH]c4ccccc34)C(=O)N(C)C2=O)c2ccccc21 |
| 69 to 70 °C | CCCCC(CC)COCCCN1C(C)=CC(=C(C#N)C(=O)OCC(CC)CCCC)C=C1C (centres undefined) |
| 249 to 251 °C | O=C(O)c1cn(CCF)c2cc(F)c(F)cc2c1=O |
| 153 to 155 °C | COc1ccc(N2CCN(c3c(C)c(C)c4c(c3C)C(O)(c3ccc(Cl)cc3)C(C)(C)O4)CC2)cc1 (centres undefined) |
| 234 °C | COc1cccc2c1N(S(=O)(=O)c1ccc(-c3ccc(F)cc3F)cc1)C(C(=O)NCCOc1ccc(C(=O)O)cc1)C2 (centres undefined) |
| 203 °C | Cc1nn(C)c(NC(=O)Nc2ccccc2)c1C1=CCCCC1 |
| 120 to 122 °C | CN(c1ccc(OC2CCCC2)cc1)S(C)(=O)=O |
| 74.5 to 75 °C | CC(CO)(CO)OCc1ccccc1F |
| 159 to 164 °C | O=C(Nc1ccc(-n2nc(C3CC3)cc2C2CC2)cc1)c1c(Cl)cncc1Cl |

| melting point | SMILES |
| --- | --- |
| 133 to 134 °C | CCc1c(-c2ccc(OCc3ccccc3)cc2)c2c(CO)cc3c(OCc4ccccc4)ccc1n32 |
| 120 °C | Cc1sc(S(N)(=O)=O)cc1[N+](=O)[O-] |
| 109 to 110 °C | O=[N+]([O-])c1cccc(-c2ccncc2)c1 |
| 165 to 167 °C | Cc1ccc(S(=O)(=O)N2CCc3c(sc(N)c3C(=O)c3ccccc3)C2)cc1 |
| 80 to 82 °C | Oc1ccc2c(c1)OC1(CCCCCC1)O2 |
| 80 to 84 °C | Cc1ccc(C(F)(F)F)cc1-c1ccc(S(=O)(=O)N2c3ccccc3CC2C(=O)NCCOc2ccc(CC(=O)O)cc2)cc1 (centres undefined) |
| 72 to 78 °C | CC(C)(C)OC(=O)[C@@H]1CCC(=S)N1Cc1ccccc1 |
| 203 °C | COc1ccc(N2CCN(S(=O)(=O)c3cccc(/C=C/C(=O)NO)c3)CC2)cc1 |
| 48 to 50 °C | CCCCCCNC(=O)NCCCCl |
| 234 to 237 °C | Cc1cc(O)c2cc(C)c(-c3ccc(Cl)cc3Cl)n2n1 |
| 85 to 87 °C | CC1CCC(C(C)C)C(OC(=O)/C=C\C(=O)c2ccccc2)C1 (centres undefined) |
| 182 to 186 °C | CCCN(Cc1ccc(-c2ccccc2-c2nc(=O)o[nH]2)cc1)c1nc(C)ncc1C(=O)O |
| 146 to 147 °C | C=CCSC(C#N)C1=NCCc2cc(OC)c(OC)cc21 (centres undefined) |
| 100 to 101 °C | CC(CCCCCOCCc1ccc(N(C)C)cc1)NCc1c(CO)ccc(O)c1CO (centres undefined) |
| 171 to 173 °C | O=C(CCC(=O)[C@H](Cc1ccccc1)NC(=O)c1ccccc1)N[C@@H](Cc1c[nH]c2ccccc12)C(=O)O |
| 178 to 180 °C | CCn1nc(C(N)=O)cc1CC(C)(C)NC(=O)OC(C)(C)C |
| 265 °C | Nc1nc(N2CCCC2)c2nc[nH]c2n1 |
| > 300 °C | Fc1ccc(-c2[nH]cc(-c3c(F)c(F)nc(F)c3F)c2-c2ccncc2)cc1 |
| 176 to 180 °C | NNc1ccc(-c2ccc(Cl)cc2)nn1 |
| 158 to 162 °C | CCOC(=O)c1ccc(NCCOc2ccc3ccccc3c2)cc1 |
| 63 to 65 °C | COc1ccc(C=C2c3ccccc3C(=O)c3ccccc32)cc1OCC(=O)N1CCC(CO[N+](=O)[O-])CC1 |
| 211 to 213 °C | CSc1ncc(Cc2cccnc2)c(=S)[nH]1 |
| 77 to 78 °C | CCCCCCC(=O)c1ccc2cc(OC)c(OC)cc2c1 |
| 63 °C | COC1=C(OC)C(=O)C(CCCCCCCCCCCCO)=C(C)C1=O |
| 84 °C | Cc1c(C#N)cccc1C(=O)c1ccc(Cl)cc1 |

| melting point | SMILES |
| --- | --- |
| 105 to 107 °C | OC1(c2ccc3c(c2)OCO3)C(c2ccc(Cl)cc2)SC2=NCCCCN21 (centres undefined) |
| 109 to 111 °C | O=C1NC2(CCCC2)CCCC1Cl (centres undefined) |
| 116 to 118 °C | CCOC(=O)CSc1cc(NS(=O)(=O)c2cccs2)c2ccccc2c1O |
| 163 to 165 °C | Clc1cccc2c1CN(Cc1c[nH]c3ccccc13)C2 |
| 166 to 169 °C | CN(C(=S)NC(=O)c1ccccc1)c1ccc(-c2ncn(-c3ccc(OC(F)(F)F)cc3)n2)cc1 |
| 130 °C | COc1cccc(S(=O)(=O)n2c(COC(C)(C)C(=O)O)cc3nc(Cl)ccc32)c1 |
| 221 to 222 °C | COc1c(N2CCC(n3cncn3)C2)c(F)cc2c(=O)c(C(=O)O)cn(C3CC3)c12 (centres undefined) |
| 150 to 154 °C | CNc1cccc(C#CCCn2nc3ccccc3n2)n1 |
| 248 to 249 °C | Cc1c(Cc2cccnc2)sc2cc(C(=O)O)ccc12 |
| 110 to 111 °C | COC(=O)Cc1c(C(=O)OC)ccn1CCCl |
| 93 to 95 °C | CCc1cc(C(C)=O)nn1-c1ccc([N+](=O)[O-])cc1 |
| 140 to 142 °C | COc1ccc(-c2[nH]cnc2-c2cc(OC)c(N)c(OC)c2)cc1N |
| 111 to 112 °C | Nc1ccc(C2CCN(C(=O)C(F)(F)F)CC2)cc1 |
| 119 to 120 °C | COc1ccc2c(c1)CCC1=C2CCCN1C(C)=O |
| 186 to 188 °C | CC(C)c1ccc2nc3ccc(C(=O)OCC#N)cn3c(=O)c2c1 |
| 111 to 114 °C | CN1CCC(C2c3ccccc3CCc3cccnc32)CC1 (centres undefined) |
| 140 to 143 °C | Nc1c(SC(F)(F)F)c(C=O)nn1-c1c(Cl)cc(CC(F)(F)F)cc1Cl |
| 192 to 193 °C | O=C(NS(=O)(=O)c1ccccc1)c1ccc(I)cc1 |
| 146 °C | Cc1nc(Cl)cc(NN)n1 |
| 43 to 45 °C | COc1cccc(C=CC(=O)Cl)c1 |
| 193 °C | CCOC(=O)c1c(O)c2cscc2[nH]c1=O |
| 153 to 155 °C | CC(C)(C)c1cc(-c2csc(CN3CCSCC3)n2)cc(C(C)(C)C)c1O |
| 109 to 112 °C | OCC1OC(n2cnc3c(NNC4COc5ccccc5C4)ncnc32)C(O)C1O (centres undefined) |

| SMILES | melting point |
| --- | --- |
| O=C(OCc1ccccc1)N1CCC(C(=O)O)(c2ccccc2)CC1 | 142 to 144 °C |
| O=CN=C1SCCN1Cc1ccc(Cl)nc1 | 99 to 100 °C |
| CC12CC(=O)C3C(CCC4CC(O)CCC43C)C1CCC2C(=O)CCO (centres undefined) | 156 to 158 °C |
| CN(SN1CCOCC1)C(=O)Oc1cccc2c1OC(C)(C)C2 | 75 to 78 °C |
| O=C1CCCN1C(=O)c1cccnc1 | 98 to 100 °C |
| CN1CCC(c2nc3cccnc3[nH]2)CC1 | 224 to 226 °C |
